Legend:
[1] = set-up: method as in Zhou et al, 2011; conditions: ref Zhou et al, 2011; cited from earlier work
[2] = system: pyramidal neurons of the prefrontal cortex; experiment: Evoked inhibitory postsynaptic currents (eIPSCs) in acute prefrontal cortex slices; type: cell-based, mouse; conditions: 5 μM in the presence of canrenone (10 μM)
Description: 300‐μm‐thick transverse slices comprising the medial prefrontal cortex (mPFC) area were prepared from 7‐ to 8‐week‐old C57Bl/6 mice as described previously (Teng et al, 2013; Agarwal et al, 2014). All recordings were performed in cortical layer V projection neurons. The bath solution consisted of oxygenated artificial cerebrospinal fluid (ACSF) containing NaCl 126 mM, KCl 3 mM, NaH2PO4 1.25 mM, MgSO4 1 mM, NaHCO3 26 mM, CaCl2 2 mM, glucose 10 mM, and the pH 7.2 adjusted with NaOH. Spontaneous GABAergic inhibitory postsynaptic currents (sIPSC) and evoked GABAergic inhibitory postsynaptic currents (eIPSC) were recorded at a holding potential of −70 mV in the presence of 6‐cyano‐7‐nitroquinoxaline‐2,3‐dione (CNQX, 10 μM) and DL‐2‐amino‐5‐phosphonovaleric acid (D‐APV, 50 μM). Glass pipettes were filled with the solution containing: KCl 140 mM, MgCl2 2 mM, CaCl2 1 mM, Na2GTP 0.5 mM, Na2ATP 4 mM, EGTA 10 mM, HEPES 10 mM. Patches with a series resistance of > 25 MΩ, a membrane resistance of < 0.8 GΩ, or leak currents of > 150 pA were excluded. Biphasic rectangular electric pulses (10 ms, 100–300 μA) were applied to layer I of the prelimbic area of mPFC through another glass pipette filled with ACSF. Synaptic currents were acquired at 20 kHz and filtered at 6 kHz, with a Digidata 1440 ADC‐converter coupled to a Multiclamp 700B amplifier (Molecular Devices, USA). […]

ERK = experiment: Western blot of pERK in prefrontal cortex of spironolactone-treated mice; type: in vivo, mouse; conditions: Nrg1-tg and wt mice, 50 mg/kg s.c. daily for 21 days, prefrontal cortex lysates
Description: For the generation of lysates, the isolated tissue was immediately placed into cooled (4°C) sucrose buffer (320 mM sucrose, 10 mM Tris–HCl, 1 mM NaHCO3, 1 mM MgCl2, supplemented with 10 mM NaF, 1 mM […], 1 mM ZnCl2, 4.5 mM Na4P20_7 as phosphatase inhibitors, and the complete protease inhibitor cocktail (Roche)), homogenized using an ultra‐turrax (IKA GmbH, Staufen, Germany), sonicated (3 pulses for 10 s), and denatured for 10 min at 70°C in LDS sample buffer.
Each blot was replicated two times.
(§1) Treatment was continued throughout the behavioral analysis period. To avoid injection‐induced stress prior to behavioral testing, mice were injected in the afternoon, after the entire cohort has completed the behavioral paradigm.

Nrg1-tg and wt mice [3] = experiment: Hot plate test; type: in vivo, mouse; conditions: 50 mg/kg s.c. daily
Description: (§2) For behavioral testing, age‐matched male mice (8–16 weeks) on C57Bl/6 background that constitutively overexpress the 2xHA‐tagged Nrg1 type III β1a isoform (Nrg1‐tg) under the control of the mouse Thy1.2 promoter (Velanac et al, 2012) and their wild‐type (wt) littermates as controls were used. Animals were group‐housed in the same ventilated sound‐attenuated rooms under a 12‐h light/12‐h dark schedule (lights on at 8:00 am) at an ambient temperature of 21°C with food and water available ad libitum. One week prior to experiments, mice were separated into single cages and habituated to the experimental rooms. To minimize the influence of the circadian rhythm on drug actions, the treatment groups were analyzed at balanced time points during the light phase. […] All animal experiments were conducted in accordance with NIH principles of laboratory animal care and were approved by the Government of Lower Saxony, Germany, in accordance with the German Animal Protection Law.
as §1

ERBB4_1-685 dimers = biological target: T1, ERBB4_1-685 dimers (Homo sapiens, UniProt Q15303); experiment: Truncated ERBB4 (amino acids 1-685) dimerization split TEV assay; conditions: PC12 cells, 10 ng/ml EGFld
T1 sequence (Q15303 26-685) 1: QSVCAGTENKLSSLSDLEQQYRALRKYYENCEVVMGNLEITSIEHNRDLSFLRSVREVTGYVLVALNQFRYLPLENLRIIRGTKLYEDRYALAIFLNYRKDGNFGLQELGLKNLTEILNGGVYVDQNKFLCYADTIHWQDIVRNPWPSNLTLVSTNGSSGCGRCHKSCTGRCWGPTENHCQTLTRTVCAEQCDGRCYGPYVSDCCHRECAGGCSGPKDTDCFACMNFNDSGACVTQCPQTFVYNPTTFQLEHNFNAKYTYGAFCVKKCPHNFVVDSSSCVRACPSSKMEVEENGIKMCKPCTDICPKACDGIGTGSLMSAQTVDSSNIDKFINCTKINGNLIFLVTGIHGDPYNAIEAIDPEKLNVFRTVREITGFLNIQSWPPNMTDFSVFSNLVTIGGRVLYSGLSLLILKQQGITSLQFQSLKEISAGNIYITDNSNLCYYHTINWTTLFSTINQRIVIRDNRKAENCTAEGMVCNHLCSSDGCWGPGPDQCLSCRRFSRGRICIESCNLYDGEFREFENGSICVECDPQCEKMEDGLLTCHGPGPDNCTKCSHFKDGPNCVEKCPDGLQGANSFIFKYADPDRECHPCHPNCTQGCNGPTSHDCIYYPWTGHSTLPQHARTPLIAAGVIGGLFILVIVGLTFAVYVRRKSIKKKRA
T1 sequence (Q15303 26-685) 2: T1 sequence (Q15303 26-685) 1
Description: Individually re‐screened candidates were validated using a dose–response assay. PC12 cells were batch‐transfected as described in the section “Transfection of cells”, manually plated, and incubated for 24 h at 37°C and 5% CO2. Candidate small molecules were prepared in a series of dilutions using DMSO as diluent and ranging from 0.0001 to 100 μM at final concentrations, thus covering at least five orders of magnitude. Candidate dilutions were added, followed by the addition of 10,000 Nrg1‐expressing cells in 100 μl volume 30 min later. Cells were lysed in 40 μl Passive Lysis Buffer and analyzed in a Dual Luciferase Assay. Data were analyzed in Excel and GraphPad Prism. For single‐culture assays that used EGFld as stimulus, 100 μl assay medium containing EGFld (f.c. 10 ng/ml) was administered. […] Dose–response assays were run in six replicates per concentration and repeated at least two times. Data are shown as mean, and error bars represent SEM.

Nrg1-tg and wt mice [4] = experiment: Open field test; type: in vivo, mouse; conditions: 50 mg/kg s.c. daily
Description: as §2, §1
Spontaneous locomotor activity was verified in the open‐field test using a Plexiglas box (45 × 45 × 55 cm). The same test arena was modified with a floor insert containing 16 symmetrically allocated holes for the hole board test. During a 10‐min testing session, mouse behavior was monitored by infrared sensors and recorded by the ActiMot software (TSE, Bad Homburg, Germany). Levels of urination (scored in events) and defecation (scored as feci in events) were determined manually during the open‐field test.

Question: With `CC(=O)S[C@@H]1CC2=CC(=O)CC[C@]2(C)[C@H]2CC[C@@]3(C)[C@@H](CC[C@@]34CCC(=O)O4)[C@H]12` [Spironolactone] as the compound, how does the “recent fear memory formation in mice” value [1] read?
Answer: The value was “impaired recent fear memory formation”.

Question: What about the eIPSC amplitude [2] of the same compound?
Answer: The eIPSC amplitude was “significantly increased”.

Question: What about the “pERK (downstream signaling)” value (ERK) of the same compound?
Answer: The value was “neither modulated by Nrg1 overexpression, nor by spironolactone treatment”.

Question: And the “pain sensitivity (latency to the first reaction, hot plate 52°C)” value (Nrg1-tg and wt mice [3])?
Answer: Its value is “significantly decreased levels of pain sensitivity”.

Question: And the “inhibitory effect on dimerization of truncated ERBB4” value (ERBB4_1-685 dimers)?
Answer: The value was “no inhibitory effect”.

Question: What about the “defecation in the open-field test” value (Nrg1-tg and wt mice [4]) of the same compound?
Answer: Its value is “no effect of treatment observed”.

Question: And the “time in the center of the open-field arena” value (Nrg1-tg and wt mice [4])?
Answer: Its value is “did not influence this parameter”.

Question: What about the “urination in the open-field test” value (Nrg1-tg and wt mice [4]) of the same compound?
Answer: The value was “without effect of treatment”.

Question: And the “locomotor hyperactivity (distance in the open-field arena)” value (Nrg1-tg and wt mice [4]; Nrg1-tg mice)?
Answer: The value was “reverted”.

Source: article PMC5653977 (EMBO Molecular Medicine, 2017)
